The term IC50 denotes the concentration that gives 50% inhibition.

The experiment concerns the target SARS-CoV-2 Papain-Like Protease (PLpro) (Severe acute respiratory syndrome coronavirus 2 (2019-nCoV) (SARS-CoV-2), UniProt P0DTD1). Nature of the experiment: biochemical. As to conditions: SARS-CoV-2 PLpro enzymatic fluorescence assay; read-out: PLpro IC50.
On to `Cc1ccc(OC[C@H]2CCN2C)cc1C(=O)NC1(c2cccc3ccccc23)CC1` [Compound 309, (R)-2-Methyl-5-((1-methylazetidin-2-yl)methoxy)-N-(1-(naphthalen-1-yl)cyclopropyl)benzamide], for which the IC50 was less than 0.1 µM. Consider `Cc1ccc(OC[C@@H]2CCN2C)cc1C(=O)NC1(c2cccc3ccccc23)CC1` [Compound 310, (S)-2-Methyl-5-((1-methylazetidin-2-yl)methoxy)-N-(1-(naphthalen-1-yl)cyclopropyl)benzamide], for which the IC50 is less than 0.1 µM. The same measure for `Cc1ccc(OCCN(C)C)c(F)c1C(=O)NC1(c2cccc3ccccc23)CC1` [Compound 311, 3-(2-(Dimethylamino)ethoxy)-2-fluoro-6-methyl-N-(1-(naphthalen-1-yl)cyclopropyl)benzamide]: 0.1 to 1 µM; for `Cc1ccc(CC(N)=O)cc1C(=O)NC1(c2cccc3ccccc23)CC1` [Compound 312, 5-(2-Amino-2-oxoethyl)-2-methyl-N-(1-(naphthalen-1-yl)cyclopropyl)benzamide]: 0.1 to 1 µM. As for `Cc1ccc(CC#N)cc1C(=O)NC1(c2cccc3ccccc23)CC1` [Compound 313, 5-(Cyanomethyl)-2-methyl-N-(1-(naphthalen-1-yl)cyclopropyl)benzamide], the IC50 was in the range of 0.1 to 1 µM. The same measure for `CCN1CCC1COc1ccc(C)c(C(=O)NC2(c3cccc4ccccc34)CC2)c1` (stereo not shown) [Compound 314, 5-((1-Ethylazetidin-2-yl)methoxy)-2-methyl-N-(1-(naphthalen-1-yl)cyclopropyl)benzamide]: less than 0.1 µM; for `Cc1ccc(OCCNc2ccccc2)cc1C(=O)NC1(c2cccc3ccccc23)CC1` [Compound 315, 2-Methyl-N-(1-(naphthalen-1-yl)cyclopropyl)-5-(2-(phenylamino)ethoxy)benzamide]: 1 to 5 µM; for `Cc1ccc(OCCCN)cc1C(=O)NC1(c2cccc3ccccc23)CC1` [Compound 316, 5-(3-Aminopropoxy)-2-methyl-N-(1-(naphthalen-1-yl)cyclopropyl)benzamide]: 0.1 to 1 µM.

As for `Cc1ccc(OCCN(C)C)cc1C(=O)NC1(c2cccc(C)c2Br)CC1` [Compound 317, N-(1-(2-Bromo-3-methylphenyl)cyclopropyl)-5-(2-(dimethylamino)ethoxy)-2-methylbenzamide], the half-maximal inhibitory concentration (IC50) was in the range of 0.1 to 1 µM. As for `Cc1ccc(OCCN(C)C)cc1C(=O)NC1(c2cccc(C)c2C)CC1` [Compound 318, 5-(2-(Dimethylamino)ethoxy)-N-(1-(2,3-dimethylphenyl)cyclopropyl)-2-methylbenzamide], the IC50 is 1 to 5 µM. Take `Cc1ccc(OCCN(C)C)cc1C(=O)NC1(c2cccc3cc(F)ccc23)CC1` [Compound 319, 5-(2-(Dimethylamino)ethoxy)-N-(1-(6-fluoronaphthalen-1-yl)cyclopropyl)-2-methylbenzamide]: the half-inhibitory concentration (IC50) was less than 0.1 µM.

In the case of `COc1cc(C2(NC(=O)c3cc(OCCN(C)C)ccc3C)CC2)c2ccccc2c1` [Compound 320, 5-(2-(Dimethylamino)ethoxy)-N-(1-(3-methoxynaphthalen-1-yl)cyclopropyl)-2-methylbenzamide], the half-maximal inhibitory concentration (IC50) is less than 0.1 µM. For `Cc1ccc(OCCN(C)C)cc1C(=O)NC1(c2ccccc2C(F)(F)F)CC1` [Compound 321, 5-(2-(Dimethylamino)ethoxy)-2-methyl-N-(1-(2-(trifluoromethyl)phenyl)cyclopropyl)benzamide], the IC50 fell in the range of 0.1 to 1 µM. On to `Cc1ccc(OCC(N)Cc2ccccc2)cc1C(=O)NC1(c2cccc3ccccc23)CC1` (stereo not shown) [Compound 322, 5-(2-Amino-3-phenylpropoxy)-2-methyl-N-(1-(naphthalen-1-yl)cyclopropyl)benzamide], for which the half-maximal inhibitory concentration (IC50) is less than 0.1 µM. Consider `Cc1ccc(OCC2CCN2C(C)C)cc1C(=O)NC1(c2cccc3ccccc23)CC1` (stereo not shown) [Compound 323, 5-((1-Isopropylazetidin-2-yl)methoxy)-2-methyl-N-(1-(naphthalen-1-yl)cyclopropyl)benzamide], for which the IC50 is less than 0.1 µM. Regarding `Cc1ccc(OCC(C)N)cc1C(=O)NC1(c2cccc3ccccc23)CC1` (stereo not shown) [Compound 324, 5-(2-Aminopropoxy)-2-methyl-N-(1-(naphthalen-1-yl)cyclopropyl)benzamide], the IC50 was less than 0.1 µM. As for `Cc1ccc(OCCN(C)C)cc1C(=O)NC1(c2cccc(-c3ccsc3)c2)CC1` [Compound 325, 5-(2-(Dimethylamino)ethoxy)-2-methyl-N-(1-(3-(thiophen-3-yl)phenyl)cyclopropyl)benzamide], the IC50 fell in the range of 0.1 to 1 µM. In the case of `Cc1ccc(OCCN(C)C)cc1C(=O)NC1(c2ccccc2Cl)CC1` [Compound 326, N-(1-(2-chlorophenyl)cyclopropyl)-5-(2-(dimethylamino)ethoxy)-2-methylbenzamide] it was 1 to 5 µM. In the case of `Cc1ccc(OCCN(C)C)cc1C(=O)NC1(c2ccccc2OCc2ccccc2)CC1` [Compound 327, N-(1-(2-(Benzyloxy)phenyl)cyclopropyl)-5-(2-(dimethylamino)ethoxy)-2-methylbenzamide] it was 1 to 5 µM; in that of `Cc1ccc(OCCN(C)C)cc1C(=O)NC1(c2cccc3c2CCCC3)CC1` [Compound 329, 5-(2-(Dimethylamino)ethoxy)-2-methyl-N-(1-(5,6,7,8-tetrahydronaphthalen-1-yl)cyclopropyl)benzamide], 0.1 to 1 µM; in that of `Cc1ccc(OCC2CCN2Cc2ccccc2)cc1C(=O)NC1(c2cccc3ccccc23)CC1` (stereo not shown) [Compound 330, 5-((1-Benzylazetidin-2-yl)methoxy)-2-methyl-N-(1-(naphthalen-1-yl)cyclopropyl)benzamide], less than 0.1 µM. On to `Cc1ccc(OCC2CCN2c2ccccc2)cc1C(=O)NC1(c2cccc3ccccc23)CC1` (stereo not shown) [Compound 331, 2-Methyl-N-(1-(naphthalen-1-yl)cyclopropyl)-5-((1-phenylazetidin-2-yl)methoxy)benzamide], for which the IC50 was greater than 5 µM.

For the molecule `Cc1ccc(OCC2CCN2CC2CC2)cc1C(=O)NC1(c2cccc3ccccc23)CC1` (stereo not shown) [Compound 332, 5-((1-(Cyclopropylmethyl)azetidin-2-yl)methoxy)-2-methyl-N-(1-(naphthalen-1-yl)cyclopropyl)benzamide], the IC50 is less than 0.1 µM. In the case of `Cc1ccc(OCCN(C)C)cc1C(=O)NC1(c2cccc3ccncc23)CC1` [Compound 333, 5-(2-(Dimethylamino)ethoxy)-N-(1-(isoquinolin-8-yl)cyclopropyl)-2-methylbenzamide], the half-inhibitory concentration (IC50) was in the range of 0.1 to 1 µM. In the case of `Cc1cc2c3c([nH]c2cc1C(=O)NC1(c2cccc4ccccc24)CC1)C(=O)CC3` [Compound 334, 7-Methyl-N-(1-(naphthalen-1-yl)cyclopropyl)-3-oxo-1,2,3,4-tetrahydrocyclopenta[b]indole-6-carboxamide] it was 1 to 5 µM; in that of `Cc1ccc(OCCN(C)C)cc1C(=O)NC1(c2cccc(Cl)c2Cl)CC1` [Compound 335, N-(1-(2,3-Dichlorophenyl)cyclopropyl)-5-(2-(dimethylamino)ethoxy)-2-methylbenzamide], 0.1 to 1 µM. On to `Cc1ccc(OCCN(C)C)cc1C(=O)NC1(c2cccc(Br)c2C)CC1` [Compound 336, N-(1-(3-Bromo-2-methylphenyl)cyclopropyl)-5-(2-(dimethylamino)ethoxy)-2-methylbenzamide], for which the IC50 was 0.1 to 1 µM. For the molecule `C#Cc1ccc(OCCN(C)C)cc1C(=O)NC1(c2cccc3ccccc23)CC1` [Compound 337, 5-(2-(Dimethylamino)ethoxy)-2-ethynyl-N-(1-(naphthalen-1-yl)cyclopropyl)benzamide], the IC50 is greater than 5 µM.

These data come from patent US20250025443A1, “COMPOUNDS AND METHODS FOR TREATING CORONA VIRUSES” (CLEAR CREEK BIO, INC., priority 2021, published 2025).
